The supplement of paper PMC5908809

Tests used:
[1] = test system: normal primary NK cells, pool 1 (3 donors), resting (IL-2 0 ng/mL); assay: drug sensitivity score (DSS) (DSS units); higher = more sensitive; extreme values may be limits of the assay; settings: 72 h
NK-YS (IL-2 2.5 ng/mL) [2] = assay: as above; settings: 72 h
[3] = test system: normal primary NK cells, pool 2 (3 donors) (IL-2 2.5 ng/mL); assay: as above; settings: 72 h
SNK-6 (IL-2 2.5 ng/mL) [4] = assay: as above; settings: 72 h
KHYG-1 (IL-2 2.5 ng/mL) [5] = assay: as above; settings: 72 h
NKL (IL-2 2.5 ng/mL) [6] = assay: as above; settings: 72 h
[7] = test system: normal primary NK cells, pool 1 (3 donors) (IL-2 2.5 ng/mL); assay: as above; settings: 72 h
[8] = test system: normal primary NK cells, pool 3 (3 donors) (IL-2 2.5 ng/mL); assay: as above; settings: 72 h
YT (IL-2 2.5 ng/mL) [9] = assay: as above; settings: 72 h
IMC-1 (IL-2 20 ng/mL) [10] = assay: as above; settings: 72 h
NK-92 (IL-2 2.5 ng/mL) [11] = assay: as above; settings: 72 h
KAI3 (IL-2 2.5 ng/mL) [12] = assay: as above; settings: 72 h
DERL-7 (IL-2 2.5 ng/mL) [13] = assay: as above; settings: 72 h
[14] = test system: normal NK cells expanded with K562-aAPC; assay: as above; settings: 72 h; IL-2 2.5 ng/mL
Protocol: (§1)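 Drug sensitivity and resistance testing on K562-aAPC-expanded normal NK cells: 5 concentrations (10-fold steps over a 10,000-fold range), 72 h at 37 °C, viability by CellTiter-Glo normalised to DMSO and benzethonium chloride controls; DSS from the fitted curve.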

[15] = test system: normal NK cells expanded with K562-aAPC; assay: percent inhibition of viability; higher = more inhibition; settings: 72 h, IL-2 2.5 ng/mL
Protocol: as §1

[16] = test system: normal primary NK cells, pool 1 (3 donors), resting (IL-2 0 ng/mL); assay: as above; settings: 72 h
NK-YS (IL-2 2.5 ng/mL) [17] = assay: as above; settings: 72 h
[18] = test system: normal primary NK cells, pool 2 (3 donors) (IL-2 2.5 ng/mL); assay: as above; settings: 72 h
SNK-6 (IL-2 2.5 ng/mL) [19] = assay: as above; settings: 72 h
KHYG-1 (IL-2 2.5 ng/mL) [20] = assay: as above; settings: 72 h
NKL (IL-2 2.5 ng/mL) [21] = assay: as above; settings: 72 h
[22] = test system: normal primary NK cells, pool 1 (3 donors) (IL-2 2.5 ng/mL); assay: as above; settings: 72 h
[23] = test system: normal primary NK cells, pool 3 (3 donors) (IL-2 2.5 ng/mL); assay: as above; settings: 72 h
YT (IL-2 2.5 ng/mL) [24] = assay: as above; settings: 72 h
IMC-1 (IL-2 20 ng/mL) [25] = assay: as above; settings: 72 h
NK-92 (IL-2 2.5 ng/mL) [26] = assay: as above; settings: 72 h
KAI3 (IL-2 2.5 ng/mL) [27] = assay: as above; settings: 72 h
DERL-7 (IL-2 2.5 ng/mL) [28] = assay: as above; settings: 72 h

NC(=O)c1cccc2cn(-c3ccc([C@@H]4CCCNC4)cc3)nc12 [Niraparib] (max concentration tested 10000 nM)
Settings	drug sensitivity score
DERL-7 (IL-2 2.5 ng/mL) [13]	5.15
IMC-1 (IL-2 20 ng/mL) [10]	8.2
KAI3 (IL-2 2.5 ng/mL) [12]	7.35
KHYG-1 (IL-2 2.5 ng/mL) [5]	6.89
NK-92 (IL-2 2.5 ng/mL) [11]	7.65
NK-YS (IL-2 2.5 ng/mL) [2]	9.06
NKL (IL-2 2.5 ng/mL) [6]	16
SNK-6 (IL-2 2.5 ng/mL) [4]	4.87
YT (IL-2 2.5 ng/mL) [9]	1.42
[1]	0
[3]	0
[7]	0
[8]	0
[14]	3.36

percent inhibition of viability [%]
Settings	1 nM	10 nM	100 nM	1000 nM	10000 nM
DERL-7 (IL-2 2.5 ng/mL) [28]	0.54	3.15	0.76	8.32	68.3
IMC-1 (IL-2 20 ng/mL) [25]	-4.38	1.54	3.53	17.8	95.6
KAI3 (IL-2 2.5 ng/mL) [27]	-1.88	8.15	4.77	19.1	78.8
KHYG-1 (IL-2 2.5 ng/mL) [20]	-5.84	6.09	-1.02	10.6	92.7
NK-92 (IL-2 2.5 ng/mL) [26]	4.26	12	8.71	15.1	92.8
NK-YS (IL-2 2.5 ng/mL) [17]	-10.5	-0.47	-4.5	25.4	94.5
NKL (IL-2 2.5 ng/mL) [21]	-9.92	5.83	22.1	72.4	82.9
SNK-6 (IL-2 2.5 ng/mL) [19]	-11.2	-10.2	1.34	0.26	86.7
YT (IL-2 2.5 ng/mL) [24]	-0.31	5.58	-0.5	-2.07	34
[15]	0.08	1.98	2.28	18.1	32.5
[16]	1.46	-12.9	-7.56	-30.2	-19.6
[18]	-5.25	-5.29	0.44	-5.11	2.06
[22]	6.04	-0.22	-4.85	-8.51	-4.48
[23]	-3.37	-7.45	1.14	-2	0.09

CN(C)C[C@@H]1CCn2cc(c3ccccc32)C2=C(C(=O)NC2=O)c2cn(c3ccccc23)CCO1 [Ruboxistaurin] (max concentration tested 10000 nM)
Settings	drug sensitivity score
DERL-7 (IL-2 2.5 ng/mL) [13]	10.5
IMC-1 (IL-2 20 ng/mL) [10]	4.21
KAI3 (IL-2 2.5 ng/mL) [12]	8.93
KHYG-1 (IL-2 2.5 ng/mL) [5]	10.2
NK-92 (IL-2 2.5 ng/mL) [11]	5.89
NK-YS (IL-2 2.5 ng/mL) [2]	9.16
NKL (IL-2 2.5 ng/mL) [6]	9.73
SNK-6 (IL-2 2.5 ng/mL) [4]	6.19
YT (IL-2 2.5 ng/mL) [9]	6.1
[1]	11.2
[3]	7.72
[7]	9.78
[8]	7.99
[14]	9.52

percent inhibition of viability [%]
Settings	1 nM	10 nM	100 nM	1000 nM	10000 nM
DERL-7 (IL-2 2.5 ng/mL) [28]	-1.56	1.57	18.1	40.6	99.9
IMC-1 (IL-2 20 ng/mL) [25]	-5.42	-4.44	-4.88	-32.9	100
KAI3 (IL-2 2.5 ng/mL) [27]	0.82	1.03	11.8	32	93.8
KHYG-1 (IL-2 2.5 ng/mL) [20]	1.18	0.63	1.33	34	98.9
NK-92 (IL-2 2.5 ng/mL) [26]	-3.12	-11.3	-3.13	2.96	98.9
NK-YS (IL-2 2.5 ng/mL) [17]	0.95	-3.62	0.25	24.6	97.6
NKL (IL-2 2.5 ng/mL) [21]	-0.55	-7.15	3.58	36.2	93.1
SNK-6 (IL-2 2.5 ng/mL) [19]	-9.54	1.49	-3.03	4.61	99.9
YT (IL-2 2.5 ng/mL) [24]	0.39	0.99	-3.02	5.34	96
[15]	-0.21	-2.52	9.41	31.6	99.7
[16]	-16.4	-10.1	-8.8	45.3	99.1
[18]	-17.6	-5.86	-4.21	13.1	100
[22]	-7.03	-9.34	0.45	29	99.8
[23]	-10.5	-8.66	0.81	14.8	99.8

Nc1nc(NC2CC2)cc(-c2cccc(Cl)c2Cl)n1 [TH588] (max concentration tested 25000 nM)
Settings	drug sensitivity score
DERL-7 (IL-2 2.5 ng/mL) [13]	5.47
IMC-1 (IL-2 20 ng/mL) [10]	6.5
KAI3 (IL-2 2.5 ng/mL) [12]	8.66
KHYG-1 (IL-2 2.5 ng/mL) [5]	12.6
NK-92 (IL-2 2.5 ng/mL) [11]	14.2
NK-YS (IL-2 2.5 ng/mL) [2]	13.8
NKL (IL-2 2.5 ng/mL) [6]	12.1
SNK-6 (IL-2 2.5 ng/mL) [4]	14.5
YT (IL-2 2.5 ng/mL) [9]	12.3
[1]	2.68
[3]	2.06
[7]	1.81
[8]	0.02
[14]	3.67

percent inhibition of viability [%]
Settings	2.5 nM	25 nM	250 nM	2500 nM	25000 nM
DERL-7 (IL-2 2.5 ng/mL) [28]	-0.31	1.28	1.11	0.06	97.7
IMC-1 (IL-2 20 ng/mL) [25]	-9.26	1.24	2.13	7.29	96.8
KAI3 (IL-2 2.5 ng/mL) [27]	0.95	-6.22	2.89	42	64.7
KHYG-1 (IL-2 2.5 ng/mL) [20]	-2.9	-3.16	5.7	58.7	107
NK-92 (IL-2 2.5 ng/mL) [26]	-1.92	-6.94	2.79	72.5	101
NK-YS (IL-2 2.5 ng/mL) [17]	1.83	-0.35	11.3	66.7	80.4
NKL (IL-2 2.5 ng/mL) [21]	-9.98	-13.7	2.66	55.4	98.6
SNK-6 (IL-2 2.5 ng/mL) [19]	0.31	-17.3	9.99	71.7	81.9
YT (IL-2 2.5 ng/mL) [24]	-5.04	-2.09	4.62	56.5	101
[15]	-9.36	-5.78	-3.43	4.8	54.4
[16]	-2.99	16.5	4.87	14.2	27.3
[18]	-12	6.63	10.1	10.4	25.7
[22]	-0.99	16	3.84	5.63	25.9
[23]	-2.82	4	7.93	2.77	13.5
